Assay results as given in ChEMBL document CHEMBL1201862, “PubChem BioAssay data set” (2004).
The source made the active and inactive calls.

Legend:
[1] = system: Streptococcus sp. 'group A'; test: Streptococcus pyogenes SK(-)GAS viability under kanamycin – luminescence, BacTiterGlo, confirmation, counter-screen for streptokinase expression inhibitor project, dose response (AID 1900); type: functional, organism-based
[2] = system: Streptococcus; test: GAS UMAA2166 growth inhibition – luminescence, BacTiterGlo, counter-screen for streptokinase expression inhibitor project, dose response (AID 1915); type: functional, organism-based;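 further: potency for reduction of bacterial viability or growth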
[3] = target: T1, Calpain-2 catalytic subunit (Sus scrofa, UniProt P43367); test: m-calpain protease blockers, concentration series – biochemical, fluorogenic peptide substrate, dose response (AID 1420); type: functional
T1 sequence (P43367 whole entry): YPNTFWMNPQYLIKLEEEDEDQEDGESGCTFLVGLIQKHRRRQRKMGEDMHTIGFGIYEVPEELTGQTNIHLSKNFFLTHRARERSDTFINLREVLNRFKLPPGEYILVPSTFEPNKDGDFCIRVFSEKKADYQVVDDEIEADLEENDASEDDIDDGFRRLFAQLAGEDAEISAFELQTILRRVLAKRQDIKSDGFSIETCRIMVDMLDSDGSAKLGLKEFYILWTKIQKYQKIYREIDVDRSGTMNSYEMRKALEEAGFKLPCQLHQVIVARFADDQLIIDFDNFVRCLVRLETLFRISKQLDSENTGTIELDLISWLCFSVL

[4] = target: T2, Streptokinase A (Streptococcus pyogenes serotype M1, UniProt P10520); test: viability-normalized secreted streptokinase activity reduction – plasminogen activation absorbance, OD405, dose response (AID 1914); type: functional, Streptococcus pyogenes M1 GAS;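 further: secreted streptokinase activity via plasminogen activation per viability signal from cell pellet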
T2 sequence (P10520 whole entry): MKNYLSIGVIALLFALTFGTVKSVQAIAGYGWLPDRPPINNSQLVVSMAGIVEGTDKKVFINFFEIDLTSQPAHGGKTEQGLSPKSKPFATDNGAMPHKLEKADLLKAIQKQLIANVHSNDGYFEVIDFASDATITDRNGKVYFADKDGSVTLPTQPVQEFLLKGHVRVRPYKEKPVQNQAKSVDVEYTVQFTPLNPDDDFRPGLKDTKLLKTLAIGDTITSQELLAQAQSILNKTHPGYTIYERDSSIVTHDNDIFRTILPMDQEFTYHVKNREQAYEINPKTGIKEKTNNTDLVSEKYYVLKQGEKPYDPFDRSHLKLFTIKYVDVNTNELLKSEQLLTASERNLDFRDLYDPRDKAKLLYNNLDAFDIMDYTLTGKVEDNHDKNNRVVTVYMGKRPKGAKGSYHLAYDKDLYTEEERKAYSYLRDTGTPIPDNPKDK

[5] = target: Cytochrome P450 2C9 (Homo sapiens, UniProt P11712)
[6] = target: Cytochrome P450 2C19 (Homo sapiens, UniProt P33261); test: Cytochrome panel assay with activity outcomes. Panel member name: p450-cyp2c19 Compounds with AC50 equal or less than 10 uM are considered active; type: functional; conditions: read-out: AC50
[7] = target: T3, Fatty acid synthase (Homo sapiens, UniProt P49327); test: inhibition of human FAS-TE enzyme activity – biochemical, kinetic fluorescence intensity, dose response (AID 624326); type: functional;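 further: rate of fluorescence rise from hydrolysis of a fluorogenic O-methyl fluorescein ester substrate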
[8] = target: T4, Corticotropin-releasing factor receptor 2/Corticotropin-releasing factor-binding protein (Homo sapiens, UniProt P24387+Q13324); test: Dose Response confirmation of uHTS hits for small molecule antagonists of the CRF-binding protein and CRF-R2 receptor complex.; type: functional; conditions: read-out: IC50_Mean
T4 sequence (Q13324 whole entry): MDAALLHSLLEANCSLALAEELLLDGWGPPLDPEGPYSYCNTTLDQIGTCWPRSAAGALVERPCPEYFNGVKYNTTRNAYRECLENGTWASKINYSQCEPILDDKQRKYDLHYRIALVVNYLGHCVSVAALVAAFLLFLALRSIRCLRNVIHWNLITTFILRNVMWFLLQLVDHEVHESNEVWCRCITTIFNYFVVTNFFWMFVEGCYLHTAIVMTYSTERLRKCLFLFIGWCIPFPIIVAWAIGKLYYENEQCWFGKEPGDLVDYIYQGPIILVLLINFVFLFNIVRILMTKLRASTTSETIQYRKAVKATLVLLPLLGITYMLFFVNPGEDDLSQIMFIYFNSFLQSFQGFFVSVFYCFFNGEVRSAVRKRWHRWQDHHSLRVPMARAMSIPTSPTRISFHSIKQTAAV
T4 sequence (P24387 whole entry): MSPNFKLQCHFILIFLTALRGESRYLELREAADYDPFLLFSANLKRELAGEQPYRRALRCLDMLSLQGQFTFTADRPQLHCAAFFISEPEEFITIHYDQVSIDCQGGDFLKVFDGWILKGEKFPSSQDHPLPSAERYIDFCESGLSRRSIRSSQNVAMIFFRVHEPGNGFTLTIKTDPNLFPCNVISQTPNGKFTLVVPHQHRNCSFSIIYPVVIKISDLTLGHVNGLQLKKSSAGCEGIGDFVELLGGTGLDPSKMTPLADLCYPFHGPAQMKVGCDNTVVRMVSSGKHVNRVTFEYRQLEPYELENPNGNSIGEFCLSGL

[9] = target: T3, Fatty acid synthase; test: inhibition of human FAS-TE enzyme activity – biochemical, endpoint fluorescence intensity, uHTS hits, dose response (AID 624327); type: functional;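 further: fluorescence from hydrolysis of an O-methyl fluorescein acyl ester substrate by the enzyme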
[10] = target: T4, Corticotropin-releasing factor receptor 2/Corticotropin-releasing factor-binding protein; test: activators of CRF receptor 2 with binding protein – uHTS hits, confirmation (AID 602473); type: functional; conditions: read-out: EC50_Mean
[11] = target: T5, Carboxy-terminal domain RNA polymerase II polypeptide A small phosphatase 1 (Homo sapiens, UniProt Q9GZU7); test: CTDSP1 inhibitors, concentration-response, biochemical, absorbance readout, ultra-high-throughput screen actives (AID 540297); type: functional
T5 sequence (Q9GZU7 whole entry): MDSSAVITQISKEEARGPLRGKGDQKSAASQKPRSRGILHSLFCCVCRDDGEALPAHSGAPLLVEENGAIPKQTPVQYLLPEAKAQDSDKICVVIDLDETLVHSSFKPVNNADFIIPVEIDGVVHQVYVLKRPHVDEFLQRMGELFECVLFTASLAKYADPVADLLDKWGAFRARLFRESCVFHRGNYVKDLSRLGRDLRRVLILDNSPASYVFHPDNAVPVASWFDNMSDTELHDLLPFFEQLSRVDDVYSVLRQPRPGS

[12] = target: T6, Protein skinhead-1 (Caenorhabditis elegans, UniProt P34707); type: functional
T6 sequence (P34707 whole entry): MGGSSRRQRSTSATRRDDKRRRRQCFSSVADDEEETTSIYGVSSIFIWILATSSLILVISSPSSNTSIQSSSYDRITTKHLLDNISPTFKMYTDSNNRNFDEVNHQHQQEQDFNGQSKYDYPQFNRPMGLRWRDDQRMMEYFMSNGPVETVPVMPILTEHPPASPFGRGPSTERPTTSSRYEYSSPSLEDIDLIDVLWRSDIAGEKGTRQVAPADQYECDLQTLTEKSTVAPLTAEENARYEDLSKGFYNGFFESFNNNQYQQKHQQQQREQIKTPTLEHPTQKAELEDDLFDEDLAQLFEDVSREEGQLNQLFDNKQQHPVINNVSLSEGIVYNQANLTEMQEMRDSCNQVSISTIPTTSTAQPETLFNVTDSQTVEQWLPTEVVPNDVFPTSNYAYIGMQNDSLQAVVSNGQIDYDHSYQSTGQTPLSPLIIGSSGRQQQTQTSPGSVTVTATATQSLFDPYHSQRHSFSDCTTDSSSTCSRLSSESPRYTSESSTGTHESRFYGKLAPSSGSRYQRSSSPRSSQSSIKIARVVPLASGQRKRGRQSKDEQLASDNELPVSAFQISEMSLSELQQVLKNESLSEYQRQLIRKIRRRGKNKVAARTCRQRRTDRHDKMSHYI

[13] = THP-1 cell cytotoxicity, dose response, cytotoxicity control for non-replicating M. tuberculosis project (AID 489025); type: functional
[14] = target: T7, Cytochrome P450 1A2 (Homo sapiens, UniProt P05177);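 further: PubChem cytochrome P450 panel assay, CYP1A2 panel member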
T7 sequence (P05177 whole entry): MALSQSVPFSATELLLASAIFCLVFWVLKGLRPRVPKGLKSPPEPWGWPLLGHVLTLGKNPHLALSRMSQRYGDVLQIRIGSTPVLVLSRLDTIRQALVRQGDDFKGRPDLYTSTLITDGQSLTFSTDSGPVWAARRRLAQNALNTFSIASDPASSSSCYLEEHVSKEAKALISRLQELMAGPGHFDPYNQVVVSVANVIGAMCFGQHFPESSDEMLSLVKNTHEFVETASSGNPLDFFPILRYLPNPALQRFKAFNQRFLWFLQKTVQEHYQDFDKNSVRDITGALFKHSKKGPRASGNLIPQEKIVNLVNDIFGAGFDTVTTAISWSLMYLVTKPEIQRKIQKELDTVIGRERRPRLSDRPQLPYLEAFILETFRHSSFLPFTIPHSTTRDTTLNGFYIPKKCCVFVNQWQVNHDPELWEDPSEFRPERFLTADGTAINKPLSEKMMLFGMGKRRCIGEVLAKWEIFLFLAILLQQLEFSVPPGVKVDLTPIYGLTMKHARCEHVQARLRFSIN

[15] = cells; type: functional
[16] = target: Cytochrome P450 3A4 (Homo sapiens, UniProt P08684);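 further: CYP3A4 tested as one member of a cytochrome P450 panel screen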
Sequence of Cytochrome P450 3A4 (P08684 whole entry): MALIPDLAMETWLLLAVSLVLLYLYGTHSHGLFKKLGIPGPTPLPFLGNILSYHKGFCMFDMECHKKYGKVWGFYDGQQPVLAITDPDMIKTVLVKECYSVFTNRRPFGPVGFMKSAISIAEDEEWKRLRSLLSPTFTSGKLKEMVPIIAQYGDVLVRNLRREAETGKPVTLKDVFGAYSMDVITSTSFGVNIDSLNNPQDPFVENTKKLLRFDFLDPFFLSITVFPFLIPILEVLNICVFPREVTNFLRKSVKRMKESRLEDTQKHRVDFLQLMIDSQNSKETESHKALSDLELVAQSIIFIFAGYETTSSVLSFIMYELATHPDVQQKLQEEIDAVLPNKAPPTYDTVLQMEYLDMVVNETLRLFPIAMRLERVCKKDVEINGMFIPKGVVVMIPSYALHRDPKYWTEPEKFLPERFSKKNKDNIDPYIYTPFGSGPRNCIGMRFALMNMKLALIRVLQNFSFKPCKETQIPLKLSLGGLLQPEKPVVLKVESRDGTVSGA

Sequence of Cytochrome P450 2C9 (P11712 whole entry): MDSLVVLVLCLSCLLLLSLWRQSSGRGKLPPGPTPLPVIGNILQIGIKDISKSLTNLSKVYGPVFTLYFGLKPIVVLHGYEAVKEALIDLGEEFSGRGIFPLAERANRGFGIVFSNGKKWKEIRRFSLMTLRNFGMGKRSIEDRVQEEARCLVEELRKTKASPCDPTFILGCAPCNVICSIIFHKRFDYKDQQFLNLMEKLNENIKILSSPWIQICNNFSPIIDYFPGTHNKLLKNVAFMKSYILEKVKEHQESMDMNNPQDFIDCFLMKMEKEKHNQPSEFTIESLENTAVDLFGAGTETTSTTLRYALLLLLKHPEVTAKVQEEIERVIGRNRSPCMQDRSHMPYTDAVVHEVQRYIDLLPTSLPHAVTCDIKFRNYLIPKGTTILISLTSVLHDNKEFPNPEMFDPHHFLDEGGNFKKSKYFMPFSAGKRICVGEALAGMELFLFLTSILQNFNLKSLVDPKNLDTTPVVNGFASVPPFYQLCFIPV
T3 sequence (P49327 whole entry): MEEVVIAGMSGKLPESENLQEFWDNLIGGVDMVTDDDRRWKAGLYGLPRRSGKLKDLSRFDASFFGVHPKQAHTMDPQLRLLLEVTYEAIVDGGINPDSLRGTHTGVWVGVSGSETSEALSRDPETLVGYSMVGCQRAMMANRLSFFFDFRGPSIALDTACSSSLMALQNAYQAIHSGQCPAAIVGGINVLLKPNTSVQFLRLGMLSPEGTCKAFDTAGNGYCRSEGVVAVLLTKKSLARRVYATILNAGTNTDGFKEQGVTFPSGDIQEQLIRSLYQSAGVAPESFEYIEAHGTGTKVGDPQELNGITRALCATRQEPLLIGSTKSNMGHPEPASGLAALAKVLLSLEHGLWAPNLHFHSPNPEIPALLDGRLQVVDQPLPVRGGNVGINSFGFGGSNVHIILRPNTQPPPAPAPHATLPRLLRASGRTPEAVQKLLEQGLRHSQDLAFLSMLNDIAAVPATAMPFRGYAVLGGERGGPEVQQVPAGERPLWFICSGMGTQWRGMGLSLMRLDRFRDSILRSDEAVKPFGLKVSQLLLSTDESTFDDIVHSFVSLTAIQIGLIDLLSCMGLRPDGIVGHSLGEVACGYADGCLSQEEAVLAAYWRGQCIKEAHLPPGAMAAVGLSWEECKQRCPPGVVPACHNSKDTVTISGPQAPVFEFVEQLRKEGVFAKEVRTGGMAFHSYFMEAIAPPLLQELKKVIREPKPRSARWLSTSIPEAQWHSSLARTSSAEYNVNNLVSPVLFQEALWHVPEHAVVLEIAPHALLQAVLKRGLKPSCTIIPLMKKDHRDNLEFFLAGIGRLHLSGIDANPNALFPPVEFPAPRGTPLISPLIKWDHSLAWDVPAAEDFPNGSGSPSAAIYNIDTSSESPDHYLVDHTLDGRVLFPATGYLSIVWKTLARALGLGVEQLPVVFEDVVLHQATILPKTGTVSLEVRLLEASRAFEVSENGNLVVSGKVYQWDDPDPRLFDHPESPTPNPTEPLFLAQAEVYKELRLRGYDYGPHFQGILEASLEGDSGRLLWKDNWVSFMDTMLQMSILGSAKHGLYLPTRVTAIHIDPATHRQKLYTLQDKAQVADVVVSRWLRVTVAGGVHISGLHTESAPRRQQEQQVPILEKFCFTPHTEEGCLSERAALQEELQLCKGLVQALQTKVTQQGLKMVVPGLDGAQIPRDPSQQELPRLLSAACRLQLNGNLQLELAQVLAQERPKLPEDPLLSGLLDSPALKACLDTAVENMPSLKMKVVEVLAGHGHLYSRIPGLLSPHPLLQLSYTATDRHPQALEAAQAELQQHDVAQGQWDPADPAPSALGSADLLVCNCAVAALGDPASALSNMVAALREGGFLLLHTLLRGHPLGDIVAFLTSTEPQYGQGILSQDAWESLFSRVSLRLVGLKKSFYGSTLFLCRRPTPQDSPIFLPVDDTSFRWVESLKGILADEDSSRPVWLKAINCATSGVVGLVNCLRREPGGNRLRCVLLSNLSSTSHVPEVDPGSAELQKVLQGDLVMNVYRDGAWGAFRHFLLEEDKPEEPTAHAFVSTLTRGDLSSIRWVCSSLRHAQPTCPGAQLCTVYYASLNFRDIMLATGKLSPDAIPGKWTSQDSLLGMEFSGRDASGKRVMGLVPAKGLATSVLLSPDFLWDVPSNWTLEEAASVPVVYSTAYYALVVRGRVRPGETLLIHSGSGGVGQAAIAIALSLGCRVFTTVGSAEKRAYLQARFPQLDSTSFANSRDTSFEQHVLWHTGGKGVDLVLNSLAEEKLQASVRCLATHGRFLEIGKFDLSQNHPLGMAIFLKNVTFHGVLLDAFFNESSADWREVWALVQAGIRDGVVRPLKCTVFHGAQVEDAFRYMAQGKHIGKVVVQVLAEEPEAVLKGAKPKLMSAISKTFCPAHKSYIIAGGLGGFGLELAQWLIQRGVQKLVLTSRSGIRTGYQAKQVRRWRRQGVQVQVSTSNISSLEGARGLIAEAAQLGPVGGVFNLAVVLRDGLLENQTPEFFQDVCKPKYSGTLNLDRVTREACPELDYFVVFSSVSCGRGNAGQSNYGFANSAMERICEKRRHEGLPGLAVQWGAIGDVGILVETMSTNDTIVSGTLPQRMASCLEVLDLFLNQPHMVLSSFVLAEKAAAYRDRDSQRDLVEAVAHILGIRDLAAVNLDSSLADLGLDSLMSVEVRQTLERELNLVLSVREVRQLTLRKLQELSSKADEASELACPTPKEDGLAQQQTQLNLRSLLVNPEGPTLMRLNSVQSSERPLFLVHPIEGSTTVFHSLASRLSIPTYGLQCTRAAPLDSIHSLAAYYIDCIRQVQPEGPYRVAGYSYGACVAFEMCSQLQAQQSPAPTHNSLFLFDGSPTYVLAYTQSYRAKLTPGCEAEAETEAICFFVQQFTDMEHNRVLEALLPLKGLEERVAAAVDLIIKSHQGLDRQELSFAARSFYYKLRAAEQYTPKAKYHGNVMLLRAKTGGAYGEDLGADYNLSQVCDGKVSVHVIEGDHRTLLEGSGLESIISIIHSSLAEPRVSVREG
Sequence of Cytochrome P450 2C19 (P33261 whole entry): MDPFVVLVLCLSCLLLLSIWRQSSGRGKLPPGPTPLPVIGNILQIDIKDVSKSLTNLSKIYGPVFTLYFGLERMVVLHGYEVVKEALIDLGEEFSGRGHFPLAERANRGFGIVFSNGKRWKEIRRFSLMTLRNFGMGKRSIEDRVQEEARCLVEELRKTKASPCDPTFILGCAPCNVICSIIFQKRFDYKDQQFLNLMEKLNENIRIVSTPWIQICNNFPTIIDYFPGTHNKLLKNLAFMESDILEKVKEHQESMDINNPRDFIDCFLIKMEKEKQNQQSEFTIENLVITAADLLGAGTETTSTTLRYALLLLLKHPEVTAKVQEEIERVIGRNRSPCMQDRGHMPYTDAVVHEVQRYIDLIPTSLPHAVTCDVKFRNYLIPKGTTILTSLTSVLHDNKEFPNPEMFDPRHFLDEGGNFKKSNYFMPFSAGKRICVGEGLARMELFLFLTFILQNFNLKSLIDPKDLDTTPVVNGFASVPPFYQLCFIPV

CCOC(=O)c1cnc(-n2nc(C)cc2C)nc1Nc1ccc(OC)cc1
EC50 [1]: 6.33 µM (active) | EC50 [2]: > 150 µM (not active) | IC50 [3]: < 0.4 µM (not active) | EC50 [4]: > 150 µM (not active)

CN1CCCN(S(=O)(=O)c2ccc3c(c2)OCCO3)CC1
AC50 [5]: inconclusive | AC50 [6]: 25.1 µM (inconclusive)

COC(=O)C1CCN(C(=O)COC(=O)c2cc([N+](=O)[O-])ccc2N2CCOCC2)CC1
IC50 [7]: 3.96 µM (active) | IC50 [8]: > 47.1 µM (inactive) | IC50 [9]: 5.73 µM (active) | EC50 [10]: > 53 µM (inactive)

COc1ccccc1Nc1nc(Cl)c(C=O)s1
IC50 [3]: > 50 µM (not active)

O=C(COC(=O)c1ccc(Cl)c(S(=O)(=O)N2CCCCC2)c1)NCc1ccco1
IC50 [11]: 13.8 µM (active)

CN1/C(=C\C(=O)CSc2nnc(NCc3ccccc3)s2)C(C)(C)c2ccccc21
IC50 [12]: > 100 µM (inactive) | IC50 [3]: 4.01 µM (not active)

CCCCNC(=O)Cc1ccc(C)cc1
CC50 [13]: > 40 µM (active)

O=C(CNC(=O)c1cccs1)NCC(=O)OCc1ccc(Cl)cc1Cl
AC50 [14]: 10 µM (inconclusive) | AC50 [5]: inconclusive

Cc1cccc(OCc2nc(C#N)c(NCc3ccc4c(c3)OCO4)o2)c1
IC50 [3]: 6.8 µM (not active)

CC(C)C1OC(NC(=O)Nc2ccc(Cl)c(Cl)c2)=NC1=O (stereo not given)
IC50 [15]: 18.9 µM (active) | EC50 [1]: 2.51 µM (active) | CC50 [13]: > 40 µM (active) | EC50 [2]: 28.7 µM (active) | EC50 [4]: > 150 µM (not active)

Cc1cccc(CNc2ccnc(-c3ccccc3CN(C)C)n2)c1
AC50 [5]: inconclusive | AC50 [16]: 3.98 µM (inconclusive)
